Article PMC12363342, “Investigating the N-terminal linker histone H1 subtypes as substrates for JmjC lysine demethylases” (RSC Chemical Biology, 2025)
Square brackets hold non-standard residues; d marks the D form. Ends that are not written are not given here. Lys(Me3) = C[N+](C)(C)CCCC[C@H](N)C(=O)O

Target: T1, KDM4E (Homo sapiens, UniProt B2RXH2)
T1 construct: KDM4DM1-L359,[39]; KDM4EM1-R336,[30]; His6 (N); made in house; host or cells: Escherichia coli
T1 sequence (B2RXH2 1-336): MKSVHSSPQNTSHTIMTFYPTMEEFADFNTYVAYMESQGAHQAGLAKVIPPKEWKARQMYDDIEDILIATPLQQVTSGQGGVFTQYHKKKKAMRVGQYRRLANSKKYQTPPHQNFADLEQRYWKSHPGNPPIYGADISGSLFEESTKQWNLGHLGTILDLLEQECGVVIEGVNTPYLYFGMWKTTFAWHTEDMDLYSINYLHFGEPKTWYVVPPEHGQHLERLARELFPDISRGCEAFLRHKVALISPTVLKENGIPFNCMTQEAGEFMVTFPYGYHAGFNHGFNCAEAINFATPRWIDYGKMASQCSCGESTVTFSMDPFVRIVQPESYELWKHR
Assay: formaldehyde dehydrogenase (FDH)-coupled demethylation assay, KDM4E
Type: biochemical
Conditions: KDM4E (400 nM); for Km / kcat (KDM4E) / kcat/KM (KDM4E): FDH-coupled fluorescence assay, peptide 1–50 μM, HEPES pH 7.5; for Km / kcat (KDM4E): FAS 20 μM, LAA 200 μM, 2OG 200 μM, NAD+ 500 μM, FDH 2.0 μM, mean ± SEM (n = 3); for kcat/KM (KDM4E): catalytic efficiency; for substrate inhibition in Michaelis-Menten kinetics (KDM4E): FDH-coupled assay, Fig. S25
Method: Kinetic parameters were determined by recording the initial reaction rates of NADH production at varying histone peptide concentrations (Fig. S24 and S25).
Kinetic parameters for demethylation of N^ε-trimethylated H1 peptides by KDM4D and KDM4E (400 nM) measured using a formaldehyde dehydrogenase-coupled demethylation assay. H1 peptide (1–50 μM), FAS (20 μM), LAA (200 μM), 2OG (200 μM), NAD^+ (500 μM), KDM4 enzyme (0.8 μM) and FDH (2.0 μM) in HEPES buffer at pH 7.5.
Substrate Km values for KDM4 enzymes were determined using a reported formaldehyde dehydrogenase/NAD coupled enzyme assay that quantifies formaldehyde production.[30] In brief, DNA encoding for wild-type full-length formaldehyde dehydrogenase was synthesised (by GenScript) and cloned into the pET-28B vector. The resultant plasmid was then transformed into the Rosetta strain of Escherichia coli. Coupled enzyme-assays were carried out in black polystyrene 384-well non-binding surface microplates (Corning) and kinetic measurements were obtained using a PHERAstar FS plate reader (BMG Labtech) equipped with a 350 nm excitation and 460 nm emission optic module.[30] All steps were performed in the assay buffer (50 mM HEPES pH 7.5, 0.01% (v/v) Tween-20). Substrate mixtures were prepared freshly and contained FAS (20 μM), LAA (200 μM), 2OG (200 μM), NAD^+ (500 μM), and H1 peptide (1–50 μM); they were dispensed (25 μL final volume) in triplicate. Assays were initiated by plate reader injection of 25 μL of a mixture of KDM4 (0.8 μM) and formaldehyde dehydrogenase (FDH) (2.0 μM) in assay buffer (50 mM HEPES pH 7.5, 0.01% (v/v) Tween-20). Production of NADH was measured at 60 second intervals over 25 cycles. Kinetic parameters were determined from the reaction rate during the initial linear phase of formaldehyde production, and specific activities were calculated from a formaldehyde standard curve and fitted to the Michaelis–Menten equation using GraphPad Prism Version 5.0 (GraphPad software, La Jolla, CA, USA). Each assay was carried out in triplicate with independently prepared reaction mixtures.

Substance	Km [µM]	kcat (KDM4E) [s⁻¹]	kcat/KM (KDM4E) [M⁻¹ s⁻¹]	substrate inhibition in Michaelis-Menten kinetics (KDM4E)
KKKATK[Lys(Me3)]AAGAGAAK [Peptide H1.5K26me3, 15-mer linker histone H1.5 residues 20-34 peptide, tri-methylated K26]	4.04 ± 0.51	0.0218 ± 0.0013	5400	–
KKKAA[Lys(Me3)]KAGGTPRKA [Peptide H1.2K25me3, 15-mer linker histone H1.2 residues 20-34 peptide, tri-methylated K25]	18.5 ± 6.87	0.0767 ± 0.0218	4120	evidence for substrate inhibition
KKKAAK[Lys(Me3)]AGGTPRKA [Peptide H1.2K26me3, 15-mer linker histone H1.2 residues 20-34 peptide, tri-methylated K26]	5.22 ± 0.54	0.0313 ± 0.0015	6000	–
KKKAR[Lys(Me3)]SAGAAKRKA [Peptide H1.4K25me3, 15-mer linker histone H1.4 residues 20-34 peptide, tri-methylated K25]	11.5 ± 3.19	0.0435 ± 0.00783	3770	evidence for substrate inhibition
KKKA[Lys(Me3)]KAGATAGKRK [Peptide H1.3K24me3, 15-mer linker histone H1.3 residues 20-34 peptide, tri-methylated K24]	6.45 ± 1.51	0.0333 ± 0.00417	5170	–
